# From paper PMC8500670, “A selective WDR5 degrader inhibits acute myeloid leukemia in patient-derived mouse models” (Science translational medicine, 2021)
# Like-named read-outs stand apart in the source and are kept apart here.
# What was measured:
# Experiment in all cases: biochemical
# SET1b Complex = SET1b Complex (Homo sapiens, UniProt Q9UPS6); set-up: gene SETD1B; complex; protein methyltransferase inhibition panel, single concentration, duplicate
# Procedure: (§1) We next assessed selectivity of MS67 against 22 protein methyltransferases (table S2) and a broad panel of common drug targets including 45 kinases (table S3) and 44 G protein–coupled receptors (GPCR), ion channels, and transporters (table S4). […] We subsequently determined that MS67 had moderate binding affinity (Ki = 1.0 ± 0.8 μM) to Sigma 2 receptor (fig. S10).
# PRMT8 = PRMT8 (Homo sapiens, UniProt Q9NR22); set-up: protein methyltransferase selectivity panel, enzyme activity relative to DMSO controls, single concentration in duplicate; settings: Substrate:=Histone H4
# Sequence of PRMT8 (Q9NR22 whole entry): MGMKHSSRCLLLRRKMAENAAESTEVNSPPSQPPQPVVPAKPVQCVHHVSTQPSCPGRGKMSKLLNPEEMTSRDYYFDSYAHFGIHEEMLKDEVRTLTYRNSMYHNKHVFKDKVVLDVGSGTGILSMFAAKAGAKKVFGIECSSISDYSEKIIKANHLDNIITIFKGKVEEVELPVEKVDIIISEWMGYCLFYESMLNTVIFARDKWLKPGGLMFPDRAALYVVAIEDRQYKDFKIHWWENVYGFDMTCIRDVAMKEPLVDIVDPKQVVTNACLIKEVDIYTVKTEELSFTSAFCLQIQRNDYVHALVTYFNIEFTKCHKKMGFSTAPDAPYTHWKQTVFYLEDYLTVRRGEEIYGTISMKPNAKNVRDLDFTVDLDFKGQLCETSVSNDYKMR
# Procedure: as §1
# SMYD3 = molecular target: T1, SMYD3 (Homo sapiens, UniProt Q9H7B4); set-up: protein methyltransferase selectivity panel, enzyme activity relative to DMSO controls, single concentration in duplicate; settings: Substrate:=MEKK2
# T1 sequence (Q9H7B4 1-428): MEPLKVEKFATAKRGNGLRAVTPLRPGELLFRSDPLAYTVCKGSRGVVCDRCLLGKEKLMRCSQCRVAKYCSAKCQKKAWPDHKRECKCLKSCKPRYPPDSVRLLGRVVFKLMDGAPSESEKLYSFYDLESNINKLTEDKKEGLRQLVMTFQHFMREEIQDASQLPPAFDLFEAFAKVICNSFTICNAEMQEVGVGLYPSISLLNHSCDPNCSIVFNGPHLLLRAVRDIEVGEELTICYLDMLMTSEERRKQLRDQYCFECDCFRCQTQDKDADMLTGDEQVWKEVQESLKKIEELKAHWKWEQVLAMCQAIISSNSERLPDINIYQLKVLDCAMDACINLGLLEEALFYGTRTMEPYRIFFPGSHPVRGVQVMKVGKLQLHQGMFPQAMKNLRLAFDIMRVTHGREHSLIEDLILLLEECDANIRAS
# Procedure: as §1
# NSD1 = NSD1 (Homo sapiens, UniProt Q96L73); set-up: protein methyltransferase selectivity panel, enzyme activity relative to DMSO controls, single concentration in duplicate; settings: Substrate:=Nucleosomes
# Procedure: as §1
# EZH2 Complex = EZH2 Complex (Homo sapiens, UniProt Q15910); set-up: complex; protein methyltransferase inhibition panel, single concentration, duplicate
# Procedure: as §1
# EZH1 Complex [1] = molecular target: T2, EZH1 Complex (Homo sapiens, UniProt Q92800); set-up: complex; protein methyltransferase inhibition panel, single concentration, duplicate
# T2 sequence (Q92800 whole entry): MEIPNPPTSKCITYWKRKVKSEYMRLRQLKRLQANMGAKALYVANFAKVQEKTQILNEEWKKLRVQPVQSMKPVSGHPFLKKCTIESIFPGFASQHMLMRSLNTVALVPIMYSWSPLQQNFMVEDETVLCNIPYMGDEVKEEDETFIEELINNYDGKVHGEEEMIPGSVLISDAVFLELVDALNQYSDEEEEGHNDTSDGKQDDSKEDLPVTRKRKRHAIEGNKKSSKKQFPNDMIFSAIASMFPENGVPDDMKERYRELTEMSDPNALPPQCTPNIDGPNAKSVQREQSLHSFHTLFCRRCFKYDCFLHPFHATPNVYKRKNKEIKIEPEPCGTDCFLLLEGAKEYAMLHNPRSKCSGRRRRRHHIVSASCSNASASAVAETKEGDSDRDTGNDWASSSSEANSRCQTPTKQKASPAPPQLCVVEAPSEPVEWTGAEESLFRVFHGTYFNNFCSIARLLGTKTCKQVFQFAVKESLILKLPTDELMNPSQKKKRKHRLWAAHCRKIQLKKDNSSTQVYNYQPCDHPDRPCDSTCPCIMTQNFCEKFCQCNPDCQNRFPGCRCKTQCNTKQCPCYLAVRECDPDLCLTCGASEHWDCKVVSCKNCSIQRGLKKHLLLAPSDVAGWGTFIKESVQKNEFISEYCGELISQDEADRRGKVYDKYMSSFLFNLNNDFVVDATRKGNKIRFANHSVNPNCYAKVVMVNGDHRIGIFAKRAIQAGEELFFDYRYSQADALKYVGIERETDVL
# T2 sequence (O75530 whole entry partner): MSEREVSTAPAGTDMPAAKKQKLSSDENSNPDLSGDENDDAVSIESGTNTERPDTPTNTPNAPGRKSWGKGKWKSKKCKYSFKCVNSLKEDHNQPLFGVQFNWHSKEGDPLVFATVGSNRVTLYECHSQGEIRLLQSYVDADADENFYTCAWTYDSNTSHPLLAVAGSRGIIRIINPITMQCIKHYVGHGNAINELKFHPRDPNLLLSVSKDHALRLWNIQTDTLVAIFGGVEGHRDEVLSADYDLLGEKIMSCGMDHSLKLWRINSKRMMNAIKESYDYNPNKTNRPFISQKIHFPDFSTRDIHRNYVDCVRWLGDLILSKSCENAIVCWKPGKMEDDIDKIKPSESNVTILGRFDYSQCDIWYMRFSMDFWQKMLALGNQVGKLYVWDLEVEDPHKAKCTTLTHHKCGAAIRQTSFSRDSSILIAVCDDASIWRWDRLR
# T2 sequence (Q09028 whole entry partner): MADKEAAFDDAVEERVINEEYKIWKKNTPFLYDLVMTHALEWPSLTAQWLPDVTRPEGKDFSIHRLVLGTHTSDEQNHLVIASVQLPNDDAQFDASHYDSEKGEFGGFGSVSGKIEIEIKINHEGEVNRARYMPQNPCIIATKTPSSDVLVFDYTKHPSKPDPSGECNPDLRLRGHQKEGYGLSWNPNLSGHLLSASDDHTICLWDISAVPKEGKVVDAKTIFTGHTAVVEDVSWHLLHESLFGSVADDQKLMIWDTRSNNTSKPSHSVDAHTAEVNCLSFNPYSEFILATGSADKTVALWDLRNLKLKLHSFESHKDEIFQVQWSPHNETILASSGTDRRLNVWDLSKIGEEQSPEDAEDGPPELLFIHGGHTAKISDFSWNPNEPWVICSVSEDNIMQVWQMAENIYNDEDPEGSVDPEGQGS
# T2 sequence (Q15022 whole entry partner): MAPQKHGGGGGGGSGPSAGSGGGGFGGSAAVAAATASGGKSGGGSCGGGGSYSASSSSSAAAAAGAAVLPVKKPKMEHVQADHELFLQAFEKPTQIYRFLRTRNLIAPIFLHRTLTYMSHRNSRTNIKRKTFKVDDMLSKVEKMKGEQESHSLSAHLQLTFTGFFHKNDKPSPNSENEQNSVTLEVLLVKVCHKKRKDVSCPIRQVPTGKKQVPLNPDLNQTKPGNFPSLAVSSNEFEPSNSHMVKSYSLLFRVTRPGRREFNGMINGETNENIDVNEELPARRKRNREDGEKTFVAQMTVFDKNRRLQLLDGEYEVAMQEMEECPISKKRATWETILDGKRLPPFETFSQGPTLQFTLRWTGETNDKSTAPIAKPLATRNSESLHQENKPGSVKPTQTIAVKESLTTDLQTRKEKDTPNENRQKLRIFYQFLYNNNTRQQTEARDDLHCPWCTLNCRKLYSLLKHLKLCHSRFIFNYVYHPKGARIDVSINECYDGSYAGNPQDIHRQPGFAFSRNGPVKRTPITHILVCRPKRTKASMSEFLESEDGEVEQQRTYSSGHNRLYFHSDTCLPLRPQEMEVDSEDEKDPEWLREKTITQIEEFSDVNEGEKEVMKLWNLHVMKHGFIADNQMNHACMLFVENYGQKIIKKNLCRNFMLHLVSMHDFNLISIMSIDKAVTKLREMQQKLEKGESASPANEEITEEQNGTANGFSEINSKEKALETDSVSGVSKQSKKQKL
# T2 sequence (Q6ZN18 whole entry partner): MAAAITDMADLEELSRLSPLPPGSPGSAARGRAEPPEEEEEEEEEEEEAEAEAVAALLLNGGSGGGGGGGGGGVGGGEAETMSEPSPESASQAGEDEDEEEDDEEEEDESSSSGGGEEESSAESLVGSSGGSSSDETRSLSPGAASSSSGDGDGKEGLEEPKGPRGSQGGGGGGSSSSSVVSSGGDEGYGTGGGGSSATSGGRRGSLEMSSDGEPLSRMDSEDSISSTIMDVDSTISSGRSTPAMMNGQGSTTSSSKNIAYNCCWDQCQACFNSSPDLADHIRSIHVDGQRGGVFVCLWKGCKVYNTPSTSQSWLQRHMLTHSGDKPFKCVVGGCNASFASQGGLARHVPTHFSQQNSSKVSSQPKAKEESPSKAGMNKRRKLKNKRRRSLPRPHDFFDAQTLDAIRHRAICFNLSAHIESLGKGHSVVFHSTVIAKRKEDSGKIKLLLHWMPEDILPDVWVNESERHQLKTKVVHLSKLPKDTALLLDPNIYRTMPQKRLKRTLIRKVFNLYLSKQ
# Procedure: as §1
# PRMT5/MEP50 Complex [2] = molecular target: T3, PRMT5/MEP50 Complex (Homo sapiens, UniProt O14744); set-up: complex; protein methyltransferase inhibition panel, single concentration, duplicate
# T3 sequence (O14744 whole entry): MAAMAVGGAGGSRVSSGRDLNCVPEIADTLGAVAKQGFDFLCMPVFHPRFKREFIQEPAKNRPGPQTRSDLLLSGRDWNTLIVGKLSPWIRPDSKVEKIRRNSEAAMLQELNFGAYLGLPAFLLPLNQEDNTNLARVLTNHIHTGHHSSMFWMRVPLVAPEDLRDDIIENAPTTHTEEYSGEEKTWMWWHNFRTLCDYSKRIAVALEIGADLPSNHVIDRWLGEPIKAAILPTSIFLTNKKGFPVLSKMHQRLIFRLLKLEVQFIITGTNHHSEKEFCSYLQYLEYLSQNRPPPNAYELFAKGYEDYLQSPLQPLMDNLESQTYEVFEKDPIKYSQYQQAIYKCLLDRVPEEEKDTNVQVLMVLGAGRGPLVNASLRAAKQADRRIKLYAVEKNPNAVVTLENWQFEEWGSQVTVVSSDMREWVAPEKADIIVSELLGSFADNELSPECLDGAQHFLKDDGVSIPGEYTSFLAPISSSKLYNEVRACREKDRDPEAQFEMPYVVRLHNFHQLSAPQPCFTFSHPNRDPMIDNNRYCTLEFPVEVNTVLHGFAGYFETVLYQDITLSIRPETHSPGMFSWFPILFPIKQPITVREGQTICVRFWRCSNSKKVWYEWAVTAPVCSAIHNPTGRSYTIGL
# T3 sequence (Q9BQA1 whole entry partner): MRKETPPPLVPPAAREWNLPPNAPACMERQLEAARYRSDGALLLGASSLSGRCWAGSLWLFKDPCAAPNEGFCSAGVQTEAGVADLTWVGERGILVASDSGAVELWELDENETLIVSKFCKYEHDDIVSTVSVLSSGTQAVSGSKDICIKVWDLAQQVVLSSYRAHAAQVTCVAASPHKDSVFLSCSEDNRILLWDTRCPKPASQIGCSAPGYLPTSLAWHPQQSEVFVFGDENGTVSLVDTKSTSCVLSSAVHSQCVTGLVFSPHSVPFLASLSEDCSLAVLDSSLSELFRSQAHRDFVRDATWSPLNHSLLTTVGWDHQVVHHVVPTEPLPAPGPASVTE
# Procedure: as §1
# EZH1 Complex [3] = molecular target: T2, EZH1 Complex; set-up: Complex; protein methyltransferase selectivity panel, enzyme activity relative to DMSO controls, single concentration in duplicate; settings: Substrate:=Core Histone
# Procedure: as §1
# PRMT5/MEP50 Complex [4] = molecular target: T3, PRMT5/MEP50 Complex; set-up: Complex; protein methyltransferase selectivity panel, enzyme activity relative to DMSO controls, single concentration in duplicate; settings: Substrate:=Histone H2A
# Procedure: as §1
# [5] = read-out: Enzyme % Activity (relative to DMSO controls) / MS67 / 10 / Data 1:
# [6] = read-out: Enzyme % Activity (relative to DMSO controls) / MS67 / 10 / Data 2:
smiles,measurement,setting,value
Cc1ncsc1-c1ccc([C@H](C)NC(=O)[C@@H]2C[C@@H](O)CN2C(=O)[C@@H](NC(=O)CNC(=O)c2ccc(F)c(-c3ccc(N4C[C@@H](C)N(C)[C@@H](C)C4)c(NC(=O)c4c[nH]c(=O)cc4C(F)(F)F)c3)c2)C(C)(C)C)cc1 [MS67],inhibition at 10 µM,SET1b Complex,< 10%
same,remaining activity at 10 µM,PRMT8; [5],102%
same,remaining activity at 10 µM,PRMT8; [6],98.1%
same,remaining activity at 10 µM,SMYD3; [5],103%
same,remaining activity at 10 µM,SMYD3; [6],116%
same,remaining activity at 10 µM,NSD1; [5],111%
same,remaining activity at 10 µM,NSD1; [6],107%
same,inhibition at 10 µM,EZH2 Complex,< 10%
same,inhibition at 10 µM,EZH1 Complex [1],< 10%
same,inhibition at 10 µM,PRMT5/MEP50 Complex [2],< 10%
same,remaining activity at 10 µM,EZH1 Complex [3]; [5],97.1%
same,remaining activity at 10 µM,EZH1 Complex [3]; [6],103%
same,remaining activity at 10 µM,PRMT5/MEP50 Complex [4]; [5],96.2%
same,remaining activity at 10 µM,PRMT5/MEP50 Complex [4]; [6],97.3%
